Laboratory results from ChEMBL document CHEMBL4477270, “Design, synthesis, and protein methyltransferase activity of a unique set of constrained amine containing compounds” (Bioorg Med Chem Lett, 2016).

The molecules below were run against T1, N-lysine methyltransferase KMT5A (Homo sapiens, UniProt Q9NQR1) (assay: Inhibition of SETD8 in HEK293T cells assessed as reduction in H4K20me level after 2 to 3 days by Western blot analysis).
T1 sequence (Q9NQR1 whole entry): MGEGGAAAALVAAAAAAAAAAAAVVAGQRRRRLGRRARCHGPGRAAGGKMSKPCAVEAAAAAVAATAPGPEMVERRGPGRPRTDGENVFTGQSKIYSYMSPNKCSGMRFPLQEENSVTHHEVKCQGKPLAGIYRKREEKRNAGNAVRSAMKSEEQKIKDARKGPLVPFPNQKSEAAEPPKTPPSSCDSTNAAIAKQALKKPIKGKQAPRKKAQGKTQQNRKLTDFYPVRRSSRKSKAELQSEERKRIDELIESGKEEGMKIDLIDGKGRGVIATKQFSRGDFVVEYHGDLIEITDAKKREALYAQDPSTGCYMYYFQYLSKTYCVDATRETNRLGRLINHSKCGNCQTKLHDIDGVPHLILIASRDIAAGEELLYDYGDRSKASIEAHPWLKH
Format: cell-based

EC50	SMILES
< 5 µM	O=C1C(Cl)=C(NCCN2CCOCC2)C(=O)c2ncccc21
< 5 µM	CC1(C)C(=O)N=C2C1=C(O)C(=O)c1ccccc12
< 1 µM	Cc1ccc(/N=C2\CC(=O)c3sc(C)nc3C2=O)cc1
